Results from PubChem BioAssay AID256 (DTP/NCI, 2004).
Values joined by “and” are separate entries in the source; they are usually repeats but may differ in a detail not shown here. Identical values can stand only once. Toxic doses and inconclusive results are not listed. Rule for the calls: active = survival T/C of 150% or more; inactive = T/C below 125% in these data.

System: CD2F1 mice, L1210 leukemia ip, survival T/C
Test: NCI In Vivo Anticancer Drug Screen. Data for tumor model L1210 Leukemia (intraperitoneal) in CD2F1 (CDF1) mice
Details: higher = longer survival
Outline: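 Implant tumor; dose compound or vehicle; measure endpoint in both groups; report treated divided by control.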

[1] = endpoint: mean survival time, dose: 100.0 mg/kg/injection, schedule: Q01DX009 (ip), vehicle: saline with Tween-80
[2] = endpoint: mean survival time, dose: 100.0 mg/kg/injection, schedule: Q04DX003 (ip), vehicle: saline with Tween-80
[3] = endpoint: mean survival time, dose: 200.0 mg/kg/injection, schedule: Q01DX009 (ip), vehicle: saline with Tween-80
[4] = endpoint: mean survival time, dose: 200.0 mg/kg/injection, schedule: Q04DX003 (ip), vehicle: saline with Tween-80
[5] = endpoint: mean survival time, dose: 400.0 mg/kg/injection, schedule: Q01DX009 (ip), vehicle: saline with Tween-80
[6] = endpoint: mean survival time, dose: 400.0 mg/kg/injection, schedule: Q04DX003 (ip), vehicle: saline with Tween-80
[7] = endpoint: mean survival time, dose: 200.0 mg/kg/injection, schedule: Q04DX002 (ip), vehicle: saline with Tween-80
[8] = endpoint: mean survival time, dose: 50.0 mg/kg/injection, schedule: Q01DX009 (ip), vehicle: saline with Tween-80
[9] = endpoint: mean survival time, dose: 50.0 mg/kg/injection, schedule: Q01DX009 (ip), vehicle: saline
[10] = endpoint: mean survival time, dose: 100.0 mg/kg/injection, schedule: Q01DX009 (ip), vehicle: saline
[11] = endpoint: mean survival time, dose: 200.0 mg/kg/injection, schedule: Q01DX009 (ip), vehicle: saline
[12] = endpoint: mean survival time, dose: 12.5 mg/kg/injection, schedule: Q01DX009 (ip), vehicle: saline
[13] = endpoint: mean survival time, dose: 25.0 mg/kg/injection, schedule: Q01DX009 (ip), vehicle: saline

Measured: T/C

COc1ccc(C(=O)O)c(N)c1
inactive: [1] 95 % of control | [2] 94 % of control | [3] 92 % of control | [4] 97 % of control | [5] 101 % of control | [6] 97 % of control

O=C(Nc1ccccc1[N+](=O)[O-])OCc1ccccc1
inactive: endpoint: mean survival time, dose: 100.0 mg/kg/injection, schedule: Q04DX002 (ip), vehicle: saline with Tween-80 95 % of control | [7] 91 % of control | endpoint: mean survival time, dose: 400.0 mg/kg/injection, schedule: Q04DX002 (ip), vehicle: saline with Tween-80 91 % of control

O.O=S(=O)(O)O.[Co+3].[NH2-].[NH2-].[NH2-].[NH2-].[NH2-]
inactive: [7] 123 % of control

COc1ccc(OC)c(/C=C/c2ccc3ccccc3[n+]2C)c1
inactive: endpoint: mean survival time, dose: 5.0 mg/kg/injection, schedule: Q01DX009 (ip), vehicle: saline with Tween-80 98 % of control | endpoint: mean survival time, dose: 10.0 mg/kg/injection, schedule: Q01DX009 (ip), vehicle: saline with Tween-80 88 % of control

O=C(O)C[As](=O)(O)O
inactive: endpoint: mean survival time, dose: 15.0 mg/kg/injection, schedule: Q01DX009 (ip), vehicle: saline 100 % of control | endpoint: mean survival time, dose: 30.0 mg/kg/injection, schedule: Q01DX009 (ip), vehicle: saline 108 % of control | endpoint: mean survival time, dose: 60.0 mg/kg/injection, schedule: Q01DX009 (ip), vehicle: saline 91 % of control

O/N=C\c1cccc2ccccc12
inactive: [2] 97 % of control | [4] 101 % of control

Cn1c(CC(O)(C(F)(F)F)C(F)(F)F)c(C(O)(C(F)(F)F)C(F)(F)F)c2ccccc21
inactive: endpoint: mean survival time, dose: 5.0 mg/kg/injection, schedule: Q04DX003 (ip), vehicle: saline with Tween-80 101 % of control | endpoint: mean survival time, dose: 10.0 mg/kg/injection, schedule: Q04DX003 (ip), vehicle: saline with Tween-80 90 % of control | endpoint: mean survival time, dose: 20.0 mg/kg/injection, schedule: Q04DX003 (ip), vehicle: saline with Tween-80 90 % of control

CCCC/C=C/C=C/CCCC
inactive: [8] 103 % of control | [1] 92 % of control | [3] 107 % of control

COc1ccc2[nH]cc(CCN(C)C)c2c1
inactive: endpoint: mean survival time, dose: 12.5 mg/kg/injection, schedule: Q01DX009 (ip), vehicle: saline with Tween-80 94 % of control | endpoint: mean survival time, dose: 12.5 mg/kg/injection, schedule: Q04DX003 (ip), vehicle: saline with Tween-80 100 % of control | endpoint: mean survival time, dose: 25.0 mg/kg/injection, schedule: Q01DX009 (ip), vehicle: saline with Tween-80 91 % of control | endpoint: mean survival time, dose: 25.0 mg/kg/injection, schedule: Q04DX003 (ip), vehicle: saline with Tween-80 95 % of control | [8] 92 % of control | endpoint: mean survival time, dose: 50.0 mg/kg/injection, schedule: Q04DX003 (ip), vehicle: saline with Tween-80 96 % of control

CCN(CC)CCC(CN(C)C)C(C)=O (stereo unspecified)
inactive: endpoint: mean survival time, dose: 75.0 mg/kg/injection, schedule: Q01DX001 (ip), vehicle: other 106 % of control | endpoint: mean survival time, dose: 150.0 mg/kg/injection, schedule: Q01DX001 (ip), vehicle: other 103 % of control | endpoint: mean survival time, dose: 300.0 mg/kg/injection, schedule: Q01DX001 (ip), vehicle: other 96 % of control

COP(=O)(CC1CO1)OC (stereo unspecified)
inactive: [9] 103 % of control | [10] 106 % of control | [11] 98 % of control

C[C@]12CC[C@H]3[C@@H](CCC4=C[C@@H](OC5OCC(OC6OC(CO)C(O)C(O)C6O)C(O)C5O)CC[C@@]43C=O)[C@@]1(O)CCC2C1=CC(=O)OC1 (stereo partly specified)
inactive: endpoint: mean survival time, dose: 0.16 mg/kg/injection, schedule: Q01DX009 (ip), vehicle: Klucel (hydroxypropylcellulose) (HPC) 101 % of control | endpoint: mean survival time, dose: 0.31 mg/kg/injection, schedule: Q01DX009 (ip), vehicle: Klucel (hydroxypropylcellulose) (HPC) 101 % of control | endpoint: mean survival time, dose: 0.62 mg/kg/injection, schedule: Q01DX009 (ip), vehicle: Klucel (hydroxypropylcellulose) (HPC) 98 % of control | endpoint: mean survival time, dose: 0.63 mg/kg/injection, schedule: Q01DX009 (ip), vehicle: Klucel (hydroxypropylcellulose) (HPC) 102 % of control | endpoint: mean survival time, dose: 1.25 mg/kg/injection, schedule: Q01DX009 (ip), vehicle: Klucel (hydroxypropylcellulose) (HPC) 98 % of control and 107 % of control | endpoint: mean survival time, dose: 2.5 mg/kg/injection, schedule: Q01DX009 (ip), vehicle: Klucel (hydroxypropylcellulose) (HPC) 93 % of control and 95 % of control | endpoint: mean survival time, dose: 5.0 mg/kg/injection, schedule: Q01DX009 (ip), vehicle: Klucel (hydroxypropylcellulose) (HPC) 102 % of control | endpoint: mean survival time, dose: 10.0 mg/kg/injection, schedule: Q01DX009 (ip), vehicle: Klucel (hydroxypropylcellulose) (HPC) 108 % of control | endpoint: mean survival time, dose: 20.0 mg/kg/injection, schedule: Q01DX009 (ip), vehicle: Klucel (hydroxypropylcellulose) (HPC) 113 % of control | endpoint: mean survival time, dose: 156.0 micrograms/kg/injection, schedule: Q01DX009 (ip), vehicle: Klucel (hydroxypropylcellulose) (HPC) 104 % of control | endpoint: mean survival time, dose: 312.0 micrograms/kg/injection, schedule: Q01DX009 (ip), vehicle: Klucel (hydroxypropylcellulose) (HPC) 110 % of control | endpoint: mean survival time, dose: 625.0 micrograms/kg/injection, schedule: Q01DX009 (ip), vehicle: Klucel (hydroxypropylcellulose) (HPC) 100 % of control | endpoint: mean survival time, dose: 1250.0 micrograms/kg/injection, schedule: Q01DX009 (ip), vehicle: Klucel (hydroxypropylcellulose) (HPC) 92 % of control | endpoint: mean survival time, dose: 2500.0 micrograms/kg/injection, schedule: Q01DX009 (ip), vehicle: Klucel (hydroxypropylcellulose) (HPC) 101 % of control | endpoint: mean survival time, dose: 5000.0 micrograms/kg/injection, schedule: Q01DX009 (ip), vehicle: Klucel (hydroxypropylcellulose) (HPC) 101 % of control

CC(=O)NCCSSCCCCS(=O)O
inactive: endpoint: median survival time, dose: 25.0 mg/kg/injection, schedule: Q01DX009 (ip), vehicle: suspension in saline 93 % of control | endpoint: median survival time, dose: 50.0 mg/kg/injection, schedule: Q01DX009 (ip), vehicle: suspension in saline 100 % of control | endpoint: median survival time, dose: 100.0 mg/kg/injection, schedule: Q01DX009 (ip), vehicle: suspension in saline 96 % of control | endpoint: median survival time, dose: 200.0 mg/kg/injection, schedule: Q01DX009 (ip), vehicle: suspension in saline 100 % of control | endpoint: median survival time, dose: 400.0 mg/kg/injection, schedule: Q01DX009 (ip), vehicle: suspension in saline 114 % of control

Cc1cc([N+](=O)[O-])c2ccccc2[n+]1[O-]
inactive: [2] 100 % of control

CCOP(=O)(N=S=O)OCC
inactive: endpoint: mean survival time, dose: 12.5 mg/kg/injection, schedule: Q04DX003 (ip), vehicle: saline 100 % of control | endpoint: mean survival time, dose: 25.0 mg/kg/injection, schedule: Q04DX003 (ip), vehicle: saline 103 % of control | endpoint: mean survival time, dose: 50.0 mg/kg/injection, schedule: Q04DX003 (ip), vehicle: saline 113 % of control

Cc1ccc(S(=O)(=O)SC(Cl)(Cl)Cl)cc1
inactive: [12] 94 % of control | [13] 102 % of control

C=C1C(=O)O[C@@H]2C[C@@]3(C)CCC[C@H](C)C3=C[C@H]12
inactive: [10] 98 % of control | [11] 101 % of control

CCCCCCC#CC(O)CC (stereo unspecified)
inactive: [8] 97 % of control | [1] 105 % of control

NC(CCc1ccc2c(c1)OCO2)C(=O)O (stereo unspecified)
inactive: endpoint: mean survival time, dose: 100.0 mg/kg/injection, schedule: Q01DX001 (ip), vehicle: saline with Tween-80 97 % of control | endpoint: mean survival time, dose: 200.0 mg/kg/injection, schedule: Q01DX001 (ip), vehicle: saline with Tween-80 100 % of control | endpoint: mean survival time, dose: 400.0 mg/kg/injection, schedule: Q01DX001 (ip), vehicle: saline with Tween-80 90 % of control

O=C(O)c1ccccc1N=Cc1ccccc1O
inactive: [1] 96 % of control | [2] 103 % of control | [3] 96 % of control | [4] 113 % of control | [5] 102 % of control | [6] 105 % of control

O=C1C=C(c2ccccc2)CC1
inactive: [8] 104 % of control | [1] 93 % of control | [2] 101 % of control | [4] 100 % of control

Cc1cccc(N)n1 (tested in a mixture with another compound)
inactive: [12] 104 % of control | [13] 101 % of control | [9] 96 % of control
